Measured values published in US11629174B2, “Cryptic metabolites and method for activating silent biosynthetic gene clusters in actinomycete bacteria” (The Trustees of Princeton University, priority 2017, dated 2023).

Tests used:
[1] = tested on: Gene cluster 3648; assay: HiTES in S. avermitilis, gene cluster 3648; format: cell-based; conditions: FIGS. 16 and 17
[2] = tested on: SAV3643 and SAV3665; assay: RT-qPCR of SAV3643 and SAV3665 in cluster 3648; format: cell-based, S. avermitilis; conditions: 5 ug/mL, relative to untreated samples
[3] = tested on: S. avermitilis; assay: Growth inhibition of S. avermitilis by elicitor; format: cell-based; conditions: dose-response series in 2.5 ug/mL steps
[4] = tested on: Gene cluster 2631; assay: HiTES in S. erythraea, gene cluster 2631; format: cell-based; conditions: FIG. 10
[5] = tested on: Gene cluster 2875; assay: HiTES in S. erythraea, gene cluster 2875; format: cell-based; conditions: FIG. 11
[6] = tested on: Gene cluster 4143; assay: HiTES in S. erythraea, gene cluster 4143; format: cell-based; conditions: FIG. 12
[7] = tested on: Gene cluster 4286; assay: HiTES in S. erythraea, gene cluster 4286; format: cell-based; conditions: FIG. 13
[8] = tested on: Gene cluster 4477; assay: HiTES in S. erythraea, gene cluster 4477; format: cell-based; conditions: FIG. 14
[9] = tested on: sur cluster; assay: High-throughput elicitor screen (HiTES), eGFPx3 reporter strains of the sur cluster; format: cell-based, Streptomyces albus J1074; conditions: attB::Psur-eGFPx3 and surE::eGFPx3, ~33 μM, 60 h, hit threshold 2.5-fold eGFP fluorescence
Protocol: These next four steps are seen be referring to the previously described example. In the previously described example, HiTES was carried out using the two constructs seen in FIGS. 2B and 2C with a ˜500-member natural products library. Each S. albus construct was grown in a 96-well format, supplemented with the compound library, and the effect of each compound on the silent BGC determined using eGFP-derived fluorescence. Interference from naturally fluorescent compounds in the library was eliminated by subtracting the […], immediately after addition of the library members.
Referring to FIGS. 3A and 3B, results for both genetic constructs are shown. These graphs show relative expression of a neutral site reporter, attB::Psur-eGFPx3 (FIG. 3A) or targeted sur reporter, surE::eGFPx3 (FIG. 3B) as a function of exogenously-supplied small molecules. Each bar represents the level of expression of sur in the presence of a single candidate elicitor. Plus signs denote the positive control, attB::PermE-eGFPx3. Minus signs denote the negative controls, attB::Psur-eGFPx3 (3A) or surE::eGFPx3 (3B) in the absence of any metabolites. The expression has been normalized to the positive control.
In this example, the threshold amount was a 2.5 fold induction of eGFP-derived fluorescence emission. Thus, hits were considered those that gave at least a 2.5-fold induction of eGFP-derived fluorescence emission. However, in other embodiments, hits may be those giving at least a 2 fold induction, more preferably at least a 3 fold induction, and more preferably at least a 4 fold induction.
Seed cultures for the reporter strains sur::eGFPx3, attB::Psur-eGFPx3, negative control wild-type, and positive control attB::PermE-eGFPx3 inoculated by transferring fresh spores (˜10^7) into 20 mL of YEME medium (per L: 3% (w/v) yeast extract, 5% peptone, 3% malt extract, 1% glucose and 10.7% sucrose, and 5 mM MgCl2.6H2O) in a 125 mL Erlenmeyer flask equipped with stain-less steel springs. The cultures were grown at 30° C. and 250 rpm for 3 days. Mycelia from each of the four cultures were collected by centrifugation (10 min, 3000 g, RT) and diluted into 150 mL of R4 medium to give a final concentration of 0.05% (w/v). R4 medium consisted of (per L) 0.5% (w/v) glucose, 0.1% yeast extract, 0.5% MgCl2.6H2O, 0.2% CaCl2.2H2O, 0.15% proline, 0.118% valine, 0.28% TES, 50 mg/L casamino acid, 100 mg/L K2SO4, and 1× trace element solution, which contains 40 mg/L ZnCl2, 200 mg/L FeCl3.6H2O, 10 mg/L CuCl2.2H2O, 10 mg/L MnCl2.4H2O, 10 mg/L Na2B4O7.10H2O, and 10 mg/L (NH4)6Mo7O24.4H2O).
Subsequently, the two reporter strains (sur::eGFPx3 and attB::Psur-eGFPx3) were each dispensed into 5× sterile, clear-bottom 96-well plates (150 μL per well) using a MultiFlo Microplate Dispenser (BioTek). A separate sterile 96-well separate plate was prepared for positive and negative controls; it contained the negative control (wt S. albus J1074) in columns 1-3, sur::eGFPx3 in columns 4-6, attB::Psur-eGFPx3 in columns 7-9, and the positive control attB::PermE-eGFPx3 in columns 10-12 of the plate. No elicitors were added to the control plates. […] Upon additional of the compound library, t=0 fluorescence reads were recorded on a Synergy H1MF plate reader (BioTek) using Aex=485 nm and Aem=505-650 nm in 5 nm steps. […]

[10] = tested on: surA and surC; assay: RT-qPCR of surA and surC transcripts in wt S. albus; format: cell-based, Streptomyces albus J1074
Protocol: In the example above, the effects of these putative elicitors on the sur cluster were validated by performing a RT-qPCR with wt S. albus. Upon exposure of S. albus to each elicitor or DMSO (control), total RNA was be isolated, converted to cDNA and the surA and surC transcripts quantified by qPCR. […] To further verify the effect of 1 and 2, a dose-response assay was carried out. With both elicitors, a concentration-dependent induction of sur was observed, yielding optimal upregulation at a final concentration of ˜23 μM (etoposide) and −30 μM (ivermectin) (FIG. 4B). These concentrations induced a ˜10-fold (etoposide) and 4.5-fold (ivermectin) upregulation of surC.
All operations involving RNA utilized a dedicated RNase-free work area. To commence the experiment, seed cultures of wt S. albus J1074 were prepared by inoculating 3 ml of TSBY medium (3% (w/v) tryptic soy broth and 0.5% yeast extract) in a sterile 14 ml bacterial culture tube with freshly-prepared spores (˜10^7). The culture was incubated at 30° C. and 250 rpm in an Ecotron Shaker (ATR). After 48 hours cultivation, the cells were collected by centrifugation and subsequently diluted to a final concentration of 0.05% (w/v) in 250 ml Erlenmeyer flask containing 50 ml of R4 medium. Desired elicitors were added to final concentrations indicated in the figures (typically 1-100 μM), and the cultures were incubated at 30° C. and 250 rpm. After 48 h, 1 ml was removed from each sample and transferred to a 1.5 ml RNase-free Eppendorf tube (Ambion). Each sample was centrifuged (16,000 g, 3 min) to collect the cells, the supernatant discarded, the cells flash-frozen in liquid N2, and stored at −80° C.
RNA isolation was carried out using the Qiagen RNeasy kit following the manufacturer's instructions without modifications. Upon isolation, contaminating DNA was removed using the DNA-free kit (Ambion) according to manufacturer's instructions. Gel electrophoreses subsequently confirmed RNA integrity (FIG. S2). Finally, total RNA was converted into cDNA via the PrimeScript™ RT reagent Kit (Takara) using random hexamers as primers and 500 ng of each RNA sample as template.
Three genes (surA, surC and surR) were chosen for quantification by RT-qPCR. The primers were designed using primer-3-plus software available online. The primers were carefully chosen to give an amplicon length of 130-160 bp and a melting temperature of 60° C., though this was later optimized (see below and Table 2). The primers were chosen to vary in length between 18-22 bp, and, if possible, to contain a single G/C clamp at the 3′ end. To ensure optimal qPCR parameters, the genomic DNA of S. albus J1074 was isolated using the Wizard genomic DNA purification kit (Promega), and each amplicon was subsequently amplified using standard PCR conditions with a high-fidelity, proof-reading Q5 DNA polymerase (NEB). The PCR reactions were then separated on a 1.2% agarose gel, the amplicon excised, and gel-extracted with the Gel Extraction kit (Qiagen). The extracted DNA was used to optimize qPCR conditions. Using the amplicon template, the primer concentrations were first varied followed by the annealing/extension temperatures, which ranged from 58-68° C. in eight steps. The combination that gave the lowest quantification cycle (Cq) was used in the experiments (Table 2). The Cq was obtained with an automatic baseline determined by the CFX Manager Software (Bio-Rad). As positive controls, these standards were included in every plate that contained the experimental samples, along with no-DNA controls, in duplicates.
qPCR analysis was performed on a CFX96 Real-Time PCR Detection System (Bio-Rad) consisting of a C1000 Thermal Cycler and a CFX96 Real-Time System. The reaction was carried out in hard-shell, clear 96-well qPCR plates (Bio-Rad) and utilized the iTaq Universal SYBR Green Supermix (Bio-Rad). […]

[11] = tested on: S. albus; assay: Anti-bacterial effect of elicitor on the producing strain; format: cell-based, Streptomyces albus J1074; conditions: at high concentrations

SMILES: CN[C@@H]1[C@H](O)[C@H](NC)[C@H]2O[C@@]3(O)C(=O)C[C@@H](C)O[C@H]3O[C@@H]2[C@H]1O [Spectinomycin]
- elicitor of gene cluster 3648 (ranking) [1]: top four elicitors
- upregulation of SAV3643 and SAV3665 [2]: 40-50 fold
- concentration that inhibited growth [3]: greater than 7.5 ug/mL

SMILES: CC1(C)CCC2=C(O1)c1ccccc1C(=O)C2=O [beta-Lapachone]
- elicitor of gene cluster 2631 (ranking) [4]: top three elicitors
- elicitor of gene cluster 2875 (ranking) [5]: top two elicitors
- elicitor of gene cluster 4143 (ranking) [6]: top three elicitors
- elicitor of gene cluster 4286 (ranking) [7]: top three elicitors
- elicitor of gene cluster 4477 (ranking) [8]: top three elicitors

SMILES: COc1cc([C@@H]2c3cc4c(cc3[C@@H](O[C@@H]3O[C@@H]5CO[C@@H](C)O[C@H]5[C@H](O)[C@H]3O)[C@H]3COC(=O)[C@H]23)OCO4)cc(OC)c1O [etoposide]
- induction of the sur cluster in both reporter strains (hit ranking) [9]: best hits
- upregulation of surC ([10]; at the optimal elicitor concentration, vs DMSO): ~10 fold
- final concentration yielding optimal upregulation of sur ([10]; dose-response, RT-qPCR): ~23 µM
- induction of surA and surC ([10]; mRNA vs DMSO control, wt S. albus): 3 fold
- anti-bacterial effect on S. albus [11]: had anti-bacterial effects on S. albus
